Read-outs that look alike come from different tables or passages of the source.
Tests used:
hJAK2 = hJAK2 (Homo sapiens (Human), UniProt O60674); assay: hJAK2 LANCE TR-FRET enzymatic assay; format: biochemical; conditions: read-out: JAK2 IC50
IKKε = IKKε (Homo sapiens (Human), UniProt Q14164); assay: IKKε TR-FRET enzymatic assay; format: biochemical; conditions: read-out: IKKe IC50
TBK1 = TBK1 (Homo sapiens (Human), UniProt Q9UHD2); assay: TBK1 TR-FRET enzymatic assay;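 note: phosphorylation of a biotinylated Ser/Thr peptide by purified full-length recombinant TBK1, read by TR-FRET after 240 min at 25 °C, IC50 is the geometric mean of at least four runs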
TBK1, sequence (Q9UHD2 whole entry): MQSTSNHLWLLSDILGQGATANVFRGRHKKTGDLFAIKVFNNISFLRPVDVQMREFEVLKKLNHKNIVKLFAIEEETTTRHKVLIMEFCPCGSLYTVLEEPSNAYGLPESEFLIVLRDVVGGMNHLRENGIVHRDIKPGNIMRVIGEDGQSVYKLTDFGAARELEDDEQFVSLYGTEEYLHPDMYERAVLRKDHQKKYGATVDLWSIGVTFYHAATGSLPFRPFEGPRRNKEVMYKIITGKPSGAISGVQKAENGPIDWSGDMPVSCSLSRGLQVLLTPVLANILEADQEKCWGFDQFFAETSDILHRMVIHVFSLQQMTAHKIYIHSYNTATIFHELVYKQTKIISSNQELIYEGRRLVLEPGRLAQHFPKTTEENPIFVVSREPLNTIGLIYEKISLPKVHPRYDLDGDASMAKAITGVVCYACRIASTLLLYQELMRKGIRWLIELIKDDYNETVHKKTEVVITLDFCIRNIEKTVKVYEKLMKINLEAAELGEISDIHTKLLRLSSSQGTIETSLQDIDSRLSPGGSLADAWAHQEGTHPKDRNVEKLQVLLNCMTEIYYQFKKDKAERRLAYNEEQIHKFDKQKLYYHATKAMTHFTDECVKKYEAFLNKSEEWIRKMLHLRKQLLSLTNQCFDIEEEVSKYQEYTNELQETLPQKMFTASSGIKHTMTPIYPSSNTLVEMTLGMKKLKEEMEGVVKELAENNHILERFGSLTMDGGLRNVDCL

[1] = TR-FRET, 2×Km ATP, geometric mean of minimum four determinations

hJAK2, sequence (O60674 whole entry): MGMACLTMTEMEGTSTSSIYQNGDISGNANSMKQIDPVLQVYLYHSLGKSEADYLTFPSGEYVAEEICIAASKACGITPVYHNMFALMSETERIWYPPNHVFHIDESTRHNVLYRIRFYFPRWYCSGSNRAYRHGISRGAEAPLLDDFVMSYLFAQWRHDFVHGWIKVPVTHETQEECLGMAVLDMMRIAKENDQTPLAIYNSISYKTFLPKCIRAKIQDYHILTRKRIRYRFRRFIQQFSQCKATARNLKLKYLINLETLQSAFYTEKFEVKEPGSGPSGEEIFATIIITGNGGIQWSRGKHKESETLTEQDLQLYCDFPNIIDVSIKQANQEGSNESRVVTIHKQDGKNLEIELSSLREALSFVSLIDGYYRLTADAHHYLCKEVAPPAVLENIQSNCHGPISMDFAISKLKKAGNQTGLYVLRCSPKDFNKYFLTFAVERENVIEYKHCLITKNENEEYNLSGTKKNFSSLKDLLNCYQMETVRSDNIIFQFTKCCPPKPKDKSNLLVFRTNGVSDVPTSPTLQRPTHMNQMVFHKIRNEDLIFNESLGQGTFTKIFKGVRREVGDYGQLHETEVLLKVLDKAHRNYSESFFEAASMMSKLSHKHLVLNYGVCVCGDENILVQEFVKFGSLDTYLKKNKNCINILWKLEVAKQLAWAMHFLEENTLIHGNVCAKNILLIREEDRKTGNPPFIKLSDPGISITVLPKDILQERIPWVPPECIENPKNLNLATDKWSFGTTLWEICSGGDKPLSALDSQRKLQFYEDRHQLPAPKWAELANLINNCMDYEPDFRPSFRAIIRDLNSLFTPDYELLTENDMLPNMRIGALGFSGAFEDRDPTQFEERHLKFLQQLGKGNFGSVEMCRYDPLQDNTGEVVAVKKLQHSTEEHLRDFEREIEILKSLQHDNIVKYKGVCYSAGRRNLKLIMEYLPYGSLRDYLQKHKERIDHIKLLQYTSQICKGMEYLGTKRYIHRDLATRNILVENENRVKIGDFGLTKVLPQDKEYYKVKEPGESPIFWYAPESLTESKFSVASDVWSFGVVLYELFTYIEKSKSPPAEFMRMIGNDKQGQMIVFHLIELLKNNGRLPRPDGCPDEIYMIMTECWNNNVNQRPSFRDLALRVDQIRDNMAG
IKKε, sequence (Q14164 whole entry): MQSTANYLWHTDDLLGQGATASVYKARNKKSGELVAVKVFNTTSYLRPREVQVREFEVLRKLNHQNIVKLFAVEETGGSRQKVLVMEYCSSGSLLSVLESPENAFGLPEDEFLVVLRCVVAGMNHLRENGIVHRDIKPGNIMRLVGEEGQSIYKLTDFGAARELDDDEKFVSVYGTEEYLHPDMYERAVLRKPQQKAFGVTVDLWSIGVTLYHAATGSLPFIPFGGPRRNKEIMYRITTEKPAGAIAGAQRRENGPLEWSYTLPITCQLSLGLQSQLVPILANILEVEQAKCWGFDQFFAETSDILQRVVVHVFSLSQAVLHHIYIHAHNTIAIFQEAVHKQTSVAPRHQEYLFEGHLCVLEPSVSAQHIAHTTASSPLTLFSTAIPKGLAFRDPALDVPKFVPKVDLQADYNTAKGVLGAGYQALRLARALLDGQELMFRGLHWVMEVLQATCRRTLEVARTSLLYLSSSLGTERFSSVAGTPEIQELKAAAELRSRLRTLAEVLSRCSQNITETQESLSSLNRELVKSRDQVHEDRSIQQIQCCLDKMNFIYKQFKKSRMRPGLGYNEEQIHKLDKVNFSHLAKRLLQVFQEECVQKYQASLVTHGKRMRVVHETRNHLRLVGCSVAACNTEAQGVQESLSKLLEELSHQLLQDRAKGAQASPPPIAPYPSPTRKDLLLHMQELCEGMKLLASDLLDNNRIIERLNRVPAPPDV

| IC50 (hJAK2) [nM] | IC50 (IKKε) [nM] | IC50 (TBK1) [nM] | IC50 (IKKε; [1]) [nM] | Structure (SMILES) |
| --- | --- | --- | --- | --- |
| 278 | 19 | 7 |  | Cn1cc(Nc2ncnc(-c3ccc(N4CCCC4)c(C#N)c3)n2)cn1 [Example 8, 5-(4-((1-methyl-1H-pyrazol-4-yl)amino)-1,3,5-triazin-2-yl)-2-(pyrrolidin-1-yl)benzonitrile] |
| 961 | 120 | 30 |  | N#Cc1cc(-c2ncnc(Nc3ccc(N4CCN(C5COC5)CC4)cc3)n2)ccc1O[C@@H]1CCNC1 [Example 93, (R)-5-(4-((4-(4-(oxetan-3-yl)piperazin-1-yl)phenyl)amino)-1,3,5-triazin-2-yl)-2-(pyrrolidin-3-yloxy)benzonitrile] |
| 158 | 3 | 3 |  | C[C@H]1CN(c2ccc(Nc3ncnc(-c4ccc(O[C@H]5CCN(C(=O)c6cnn[nH]6)C[C@H]5F)c(C#N)c4)n3)cc2)CCN1C1COC1 [Example 263, 2-(((3R,4S)-3-fluoro-1-(1H-1,2,3-triazole-5-carbonyl)piperidin-4-yl)oxy)-5-(4-((4-((S)-3-methyl-4-(oxetan-3-yl)piperazin-1-yl)phenyl)amino)-1,3,5-triazin-2-yl)benzonitrile] |
| 110 | 10 | 4 |  | N#Cc1cc(-c2ncnc(Nc3ccc(N4CCN(C5COC5)CC4)cc3)n2)ccc1OCC1(F)COC1 [Example 280, 2-((3-fluorooxetan-3-yl)methoxy)-5-(4-((4-(4-(oxetan-3-yl)piperazin-1-yl)phenyl)amino)-1,3,5-triazin-2-yl)benzonitrile] |
| 59 | 18 | 4 |  | COc1cc(Nc2ncnc(-c3ccc(OC4CCS(=O)(=O)CC4)c(C#N)c3)n2)ccc1N1CCN(C2COC2)CC1 [Example 33, 2-((1,1-dioxidotetrahydro-2H-thiopyran-4-yl)oxy)-5-(4-((3-methoxy-4-(4-(oxetan-3-yl)piperazin-1-yl)phenyl)amino)-1,3,5-triazin-2-yl)benzonitrile] |
| 432 | 20 | 10 |  | C[C@H](O)C(=O)N1CC[C@H](Oc2ccc(-c3ncnc(Nc4ccc(N5CCN(C6COC6)CC5)cc4)n3)cc2C#N)C[C@@H]1C [Example 181, 2-(((2S,4S)-1-((S)-2-hydroxypropanoyl)-2-methylpiperidin-4-yl)oxy)-5-(4-((4-(4-(oxetan-3-yl)piperazin-1-yl)phenyl)amino)-1,3,5-triazin-2-yl)benzonitrile] |
| 236 | 20 | 12 |  | N#Cc1cc(-c2ncnc(Nc3ccc(N4CCN(C5COC5)CC4)cc3)n2)ccc1N1CCC2(COC2)C1 [Example 206, 5-(4-((4-(4-(oxetan-3-yl)piperazin-1-yl)phenyl)amino)-1,3,5-triazin-2-yl)-2-(2-oxa-6-azaspiro[3.4]octan-6-yl)benzonitrile] |
| ≥ 1000 | 676 | 72 |  | N#Cc1cc(-c2ncnc(Nc3ccc(N4CCN(C5COC5)CC4)cc3)n2)ccc1OC1C2CC1CN(C(=O)CO)C2 (stereo not drawn) [Example 172, 2-((3-(2-hydroxyacetyl)-3-azabicyclo[3.1.1]heptan-6-yl)oxy)-5-(4-((4-(4-(oxetan-3-yl)piperazin-1-yl)phenyl)amino)-1,3,5-triazin-2-yl)benzonitrile] |
| ≥ 1000 |  | 9 | 21 | CCn1cc(Nc2ncnc(-c3ccc(O[C@H]4CCN(C(=O)[C@H](C)O)C[C@H]4F)c(C#N)c3)n2)c(C)n1 [Example 568, 5-(4-((1-ethyl-3-methyl-1H-pyrazol-4-yl)amino)-1,3,5-triazin-2-yl)-2-(((3R,4S)-3-fluoro-1-((S)-2-hydroxypropanoyl)piperidin-4-yl)oxy)benzonitrile] |
| 450 | 115 | 22 |  | C[C@@H](Oc1ccc(-c2ncnc(Nc3ccc(N4CCN(C5COC5)CC4)cc3)n2)cc1C#N)C1CCOCC1 [Example 283, (R)-5-(4-((4-(4-(oxetan-3-yl)piperazin-1-yl)phenyl)amino)-1,3,5-triazin-2-yl)-2-(1-(tetrahydro-2H-pyran-4-yl)ethoxy)benzonitrile] |
| 371 | ≥ 1000 | 520 |  | C[C@H](O)C(=O)N1CCC(Oc2cc(C#N)cc(-c3ncnc(Nc4ccc(N5CCN(C6COC6)CC5)cc4)n3)c2)CC1 [Example 134, (S)-3-((1-(2-hydroxypropanoyl)piperidin-4-yl)oxy)-5-(4-((4-(4-(oxetan-3-yl)piperazin-1-yl)phenyl)amino)-1,3,5-triazin-2-yl)benzonitrile] |
| 225 | 3 | 1 |  | COc1cc(Nc2ncnc(-c3ccc(OC4CCOCC4)c(C#N)c3)n2)ccc1N1CCN(CC(F)F)CC1 [Example 7, 5-(4-((4-(4-(2,2-difluoroethyl)piperazin-1-yl)-3-methoxyphenyl)amino)-1,3,5-triazin-2-yl)-2-((tetrahydro-2H-pyran-4-yl)oxy)benzonitrile] |
| ≥ 1000 |  | 3 | 7 | Cc1c(Nc2ncnc(-c3ccc(O[C@H]4CCN(C(=O)[C@@H](O)CO)C[C@H]4F)c(C#N)c3)n2)cnn1C [Example 567, 2-(((3R,4S)-1-((S)-2,3-dihydroxypropanoyl)-3-fluoropiperidin-4-yl)oxy)-5-(4-((1,5-dimethyl-1H-pyrazol-4-yl)amino)-1,3,5-triazin-2-yl)benzonitrile] |
| ≥ 1000 | ≥ 1000 |  |  | N#Cc1cc(-c2ncnc(Nc3ccc(N4CCN(C5COC5)CC4)cc3)n2)ccc1O[C@H]1CCN(C(=O)[C@@H]2CCCN2)C[C@H]1F [Example 133, 2-(((3R,4S)-3-fluoro-1-((S)-pyrrolidine-2-carbonyl)piperidin-4-yl)oxy)-5-(4-((4-(4-(oxetan-3-yl)piperazin-1-yl)phenyl)amino)-1,3,5-triazin-2-yl)benzonitrile] |
| 156 |  |  | 99 | N#Cc1cc(-c2ncnc(Nc3ccc(N4CCN(C5COC5)CC4)cc3)n2)ccc1O[C@H]1CCN(Cc2nc(=O)[nH][nH]2)C[C@H]1F [Example 436, 2-(((3R,4S)-3-fluoro-1-((5-oxo-2,5-dihydro-1H-1,2,4-triazol-3-yl)methyl)piperidin-4-yl)oxy)-5-(4-((4-(4-(oxetan-3-yl)piperazin-1-yl)phenyl)amino)-1,3,5-triazin-2-yl)benzonitrile] |
| 198 | 1 |  |  | C[C@H](O)C(=O)N1CC[C@H](Oc2ccc(-c3ncnc(Nc4ccc(N5CCN(C6COC6)CC5)cc4)n3)cc2C#N)C(F)(F)C1 (single isomer, unassigned) [Example 155] |
|  | ≥ 1000 | 475 |  | Cc1nnsc1COc1ccc(-c2ncnc(Nc3ccc(N4CCN(C5COC5)CC4)cc3)n2)cc1C#N [Example 284, 2-((4-methyl-1,2,3-thiadiazol-5-yl)methoxy)-5-(4-((4-(4-(oxetan-3-yl)piperazin-1-yl)phenyl)amino)-1,3,5-triazin-2-yl)benzonitrile] |
|  | 5 | 1 |  | N#Cc1cc(-c2ncnc(Nc3ccc(N4CCN(C(=O)CO)CC4)cc3)n2)ccc1OC1CCOCC1 [Example 64, 5-(4-((4-(4-(2-hydroxyacetyl)piperazin-1-yl)phenyl)amino)-1,3,5-triazin-2-yl)-2-((tetrahydro-2H-pyran-4-yl)oxy)benzonitrile] |
|  | 2 | 3 |  | C[C@H](O)C(=O)N1CC[C@H](Oc2ccc(-c3ncnc(Nc4ccc(N5CCOC[C@@H]5CO)cc4)n3)cc2C#N)[C@H](F)C1 [Example 387, 2-(((3R,4S)-3-fluoro-1-((S)-2-hydroxypropanoyl)piperidin-4-yl)oxy)-5-(4-((4-((S)-3-(hydroxymethyl)morpholino)phenyl)amino)-1,3,5-triazin-2-yl)benzonitrile] |
|  |  | 13 | 20 | C[C@H](O)C(=O)N1CC[C@H](Oc2ccc(-c3ncnc(Nc4cnn(C(F)F)c4)n3)cc2C#N)[C@H](F)C1 [Example 457, 5-(4-((1-(difluoromethyl)-1H-pyrazol-4-yl)amino)-1,3,5-triazin-2-yl)-2-(((3R,4S)-3-fluoro-1-((S)-2-hydroxypropanoyl)piperidin-4-yl)oxy)benzonitrile] |
|  | 20 | 12 |  | N#Cc1cc(-c2ncnc(Nc3ccc(N4CCN(C5COC5)CC4)cc3)n2)ccc1OCC1(C(N)=O)CC1 [Example 605, 1-((2-cyano-4-(4-((4-(4-(oxetan-3-yl)piperazin-1-yl)phenyl)amino)-1,3,5-triazin-2-yl)phenoxy)methyl)-cyclopropanecarbox-amide] |
|  | 148 | 37 |  | COC(=O)N1CC[C@@H](Oc2ccc(-c3ncnc(Nc4ccc(N5CCN(C6COC6)CC5)cc4)n3)cc2C#N)C1 [Example 2, (R)-methyl 3-(2-cyano-4-(4-((4-(4-(oxetan-3-yl)piperazin-1-yl)phenyl)amino)-1,3,5-triazin-2-yl)phenoxy)pyrrolidine-1-carboxylate] |
|  | 32 | 13 |  | COC(=O)N1CC[C@H](Oc2ccc(-c3ncnc(Nc4ccc(N5CCN(C6COC6)CC5)cc4)n3)cc2C#N)[C@H](F)C1 [Example 290, (3R,4S)-methyl 4-(2-cyano-4-(4-((4-(4-(oxetan-3-yl)piperazin-1-yl)phenyl)amino)-1,3,5-triazin-2-yl)phenoxy)-3-fluoropiperidine-1-carboxylate] |
|  | 1 | 2 |  | N#Cc1cc(-c2ncnc(Nc3ccc(N4CCN(C5COC5)CC4)cc3)n2)ccc1O[C@H]1CCN(C(=O)c2cnn[nH]2)CC1(F)F [Example 165, (S)-2-((3,3-difluoro-1-(1H-1,2,3-triazole-5-carbonyl)piperidin-4-yl)oxy)-5-(4-((4-(4-(oxetan-3-yl)piperazin-1-yl)phenyl)amino)-1,3,5-triazin-2-yl)benzonitrile] |
|  | 21 | 4 |  | CNC(=O)c1ccc(Nc2ncnc(-c3ccc(OC4CCOCC4)c(C#N)c3)n2)cc1 [Example 14, 4-((4-(3-cyano-4-((tetrahydro-2H-pyran-4-yl)oxy)phenyl)-1,3,5-triazin-2-yl)amino)-N-methylbenzamide] |

From patent US10040781B2, “Tank-binding kinase inhibitor compounds” (Gilead Sciences, Inc., priority 2014, dated 2018)
